# Tested on: 610 metabolites from 63 biochemical pathways
# Assay: Targeted broad-spectrum plasma metabolomic analysis (LC-MS/MS), paired pre-infusion vs post-infusion (2-days and 6-weeks)
# Type: in vivo, human
# Conditions: for Linear Ratio / VIP Score / Z Abs / Z Score: plasma
# Experimental: Targeted, broad-spectrum, plasma metabolomic analysis of 610 metabolites from 63 biochemical pathways was performed by high performance liquid chromatography and tandem mass spectrometry (LC-MS/MS) on the samples collected from patients in Example 1. Venous blood was collected between the hours of 8 am and 5 pm, at least 3 hours after the last meal, into lithium-heparin vacutainer tubes (BD #367884). Plasma was separated by centrifugation at 900 g×10 minutes at room temperature within one hour of collection. The resulting fresh lithium-heparin plasma was transferred to labeled 1.2 ml or 2.0 ml externally threaded cryotubes with a minimum headspace air gap for storage at −80° C. for analysis. Samples were analyzed on an AB SCIEX QTRAP 5500 triple quadrupole mass spectrometer equipped with a Turbo V electrospray ionization (ESI) source, Shimadzu LC-20A UHPLC system, and a PAL CTC autosampler. Typically, 90 μl of plasma was thawed on ice and transferred to a 1.7 ml Eppendorf tube. Five (5.0) μl of a cocktail containing 25-35 commercial stable isotope internal standards, and 5.0 μl of 57 stable isotope internal standards that were custom-synthesized in E. coli NCM3722, Caenorhabditis elegans N2, and Komagataella phaffii (ATCC 76273; formerly known as Pichia pastoris) by metabolic labeling with 13C-glucose and 13C-bicarbonate, were added, mixed, and incubated for 10 min at 20° C. to permit small molecules and vitamins in the internal standards to associate with plasma binding proteins. Macromolecules (protein, DNA, RNA, glycans, etc.) were precipitated by extraction with 4 volumes (400 μl) of cold (−20° C.), acetonitrile:methanol (50:50) (LCMS grade, Cat #LC015-2.5 and GC230-4, Burdick & Jackson, Honeywell), vortexed vigorously, and incubated on crushed ice for 10 min, then removed by centrifugation at 16,000 g×10 min at 4° C. The supernatants containing the extracted metabolites and internal standards in the resulting 40:40:20 solvent mix of acetonitrile:methanol:water were transferred to labeled cryotubes and stored at −80° C. for LCMS/MS analysis.
# LC-MS/MS analysis was performed by scheduled multiple reaction monitoring (sMRM) under Analyst v1.6.2 software control in both negative and positive mode with rapid polarity switching (50 ms). Nitrogen was used for curtain gas (set to 30), collision gas (set to high), ion source gas 1 and 2 (set to 35). The source temperature was 500° C. Spray voltage was set to −4500 V in negative mode and 5500 V in positive mode. The values for Q1 and Q3 mass-to-charge ratios (m/z), declustering potential (DP), entrance potential (EP), collision energy (CE), and collision cell exit potential (CXP) were determined and optimized for each MRM for each metabolite. Ten microliters of extract was injected by PAL CTC autosampler via a 10 μl stainless steel loop into a 250 mm×2.0 mm, 4 μm polymer based NH2 HPLC column (Asahipak NH2P-40 2E, Showa Denko America, Inc., NY) held at 25° C. for chromatographic separation. The mobile phase was solvent A: 95% water with 20 mM (NH4)2CO3 (Sigma, Fluka Cat #74415-250G-F), 5% acetonitrile, and 38 mM NH4OH (Sigma, Fluka Cat #17837-100ML), final pH 9.75; solvent B: 100% acetonitrile. Separation was achieved using the following gradient: 0-3.5 min: 95% B, 3.6-8 min: 85% B, 8.1-13 min: 75% B, 13.5-35 min: 0% B, 36-46 min: 95% B, 46.1 min: end. The flow rate was 200 μl/min. Pump pressures ranged from 920-2600 psi over the course of the gradient. All the samples were kept at 4° C. during analysis. The chromatographic peaks were identified using MultiQuant (v3.0, Sciex), confirmed by manual inspection, and the peak areas integrated. […]
# [1] = Fatty Acid Oxidation and Synthesis, 6-weeks
# [2] = GABA, Glutamate, Arginine, Ornithine, Proline, 6-weeks
# [3] = GABA, Glutamate, Arginine, Ornithine, 2-days
# [4] = Gamma-Glutamyl and other Dipeptides, 2-days
# [5] = Gamma-Glutamyl and other Dipeptides, 6-weeks
# [6] = Gamma-glutamyl-Alanine, 6-weeks
# [7] = Glycolysis and Gluconeogenesis Metabolism, 2-days
# [8] = Glycolysis and Gluconeogenesis Metabolism, 6-weeks
# [9] = Glycosphingolipid Metabolism, 2-days
# [10] = Hexose Disaccharide Pool, 6-weeks
# [11] = Histidine, Histamine, Carnosine Metabolism, 2-days
# [12] = Histidine, Histamine, Carnosine Metabolism, 6-weeks
structure (smiles),measurement,setting,value
"Cc1ccc(C(=O)Nc2ccc(S(=O)(=O)O)c3cc(S(=O)(=O)O)cc(S(=O)(=O)O)c23)cc1NC(=O)c1cccc(NC(=O)Nc2cccc(C(=O)Nc3cc(C(=O)Nc4ccc(S(=O)(=O)O)c5cc(S(=O)(=O)O)cc(S(=O)(=O)O)c45)ccc3C)c2)c1 [Suramin, suramin]",Increased,[1],0
same,Observed Hits in the Top 48 Metabolites,[1],3
same,Decreased,[2],0
same,Fold Enrichment (Obs/Exp),[2],3.0
same,Fraction of Impact (VIP Score) Explained (% of 94.6),[2],4%
same,Impact (Sum VIP Score),[2],3.9
same,Increased,[2],2
same,Observed Hits in the Top 48 Metabolites,[2],2
same,Decreased,[3],0
same,Fold Enrichment (Obs/Exp),[3],3.5
same,Fraction of Impact (VIP Score) Explained (% of 119.7),[3],4%
same,Impact (Sum VIP Score),[3],4.7
same,Increased,[3],3
same,Observed Hits in the Top 61 Metabolites,[3],3
same,Decreased,[4],0
same,Fold Enrichment (Obs/Exp),[4],7.1
same,Fraction of Impact (VIP Score) Explained (% of 119.7),[4],3%
same,Impact (Sum VIP Score),[4],3.8
same,Increased,[4],2
same,Observed Hits in the Top 61 Metabolites,[4],2
same,Decreased,[5],0
same,Fold Enrichment (Obs/Exp),[5],4.5
same,Fraction of Impact (VIP Score) Explained (% of 94.6),[5],2%
same,Impact (Sum VIP Score),[5],2.4
same,Increased,[5],1
same,Observed Hits in the Top 48 Metabolites,[5],1
same,Linear Ratio,[6],1.644
same,VIP Score,[6],2.353
same,Z Abs,[6],1.725
same,Z Score,[6],1.725
same,Linear Ratio,"Glycerol 3-phosphate, 6-weeks",1.294
same,VIP Score,"Glycerol 3-phosphate, 6-weeks",2.081
same,Z Abs,"Glycerol 3-phosphate, 6-weeks",1.731
same,Z Score,"Glycerol 3-phosphate, 6-weeks",1.731
same,Linear Ratio,"Glycine, 6-weeks",1.392
same,VIP Score,"Glycine, 6-weeks",2.523
same,Z Abs,"Glycine, 6-weeks",1.891
same,Z Score,"Glycine, 6-weeks",1.891
same,Linear Ratio,"Glycocholic acid, 6-weeks",2.270
same,VIP Score,"Glycocholic acid, 6-weeks",1.956
same,Z Abs,"Glycocholic acid, 6-weeks",1.945
same,Z Score,"Glycocholic acid, 6-weeks",1.945
same,Decreased,[7],0
same,Fold Enrichment (Obs/Exp),[7],2.0
same,Fraction of Impact (VIP Score) Explained (% of 119.7),[7],4%
same,Impact (Sum VIP Score),[7],4.3
same,Increased,[7],2
same,Observed Hits in the Top 61 Metabolites,[7],2
same,Decreased,[8],0
same,Fold Enrichment (Obs/Exp),[8],1.3
same,Fraction of Impact (VIP Score) Explained (% of 94.6),[8],2%
same,Impact (Sum VIP Score),[8],2.1
same,Increased,[8],1
same,Observed Hits in the Top 48 Metabolites,[8],1
same,Decreased,[9],0
same,Fold Enrichment (Obs/Exp),[9],0.6
same,Fraction of Impact (VIP Score) Explained (% of 119.7),[9],2%
same,Impact (Sum VIP Score),[9],2.1
same,Increased,[9],1
same,Observed Hits in the Top 61 Metabolites,[9],1
same,Linear Ratio,"Guanidinoacetic acid, 6-weeks",1.217
same,VIP Score,"Guanidinoacetic acid, 6-weeks",1.644
same,Z Abs,"Guanidinoacetic acid, 6-weeks",1.254
same,Z Score,"Guanidinoacetic acid, 6-weeks",1.254
same,Linear Ratio,[10],2.121
same,VIP Score,[10],1.911
same,Z Abs,[10],1.220
same,Z Score,[10],1.220
same,Linear Ratio,"Hippuric acid, 6-weeks",1.602
same,VIP Score,"Hippuric acid, 6-weeks",1.559
same,Z Abs,"Hippuric acid, 6-weeks",0.881
same,Z Score,"Hippuric acid, 6-weeks",0.881
same,Linear Ratio,"Histamine, 6-weeks",1.219
same,VIP Score,"Histamine, 6-weeks",2.279
same,Z Abs,"Histamine, 6-weeks",1.312
same,Z Score,"Histamine, 6-weeks",1.312
same,Decreased,[11],0
same,Fold Enrichment (Obs/Exp),[11],1.8
same,Fraction of Impact (VIP Score) Explained (% of 119.7),[11],2%
same,Impact (Sum VIP Score),[11],1.8
same,Increased,[11],1
same,Observed Hits in the Top 61 Metabolites,[11],1
same,Decreased,[12],0
same,Fold Enrichment (Obs/Exp),[12],2.2
same,Fraction of Impact (VIP Score) Explained (% of 94.6),[12],2%
same,Impact (Sum VIP Score),[12],2.3
same,Increased,[12],1
same,Observed Hits in the Top 48 Metabolites,[12],1
same,Linear Ratio,"Hydroxyproline, 6-weeks",1.210
same,VIP Score,"Hydroxyproline, 6-weeks",2.039
same,Z Abs,"Hydroxyproline, 6-weeks",3.005
same,Z Score,"Hydroxyproline, 6-weeks",3.005
same,Decreased,"Krebs Cycle, 2-days",0
